In ChEMBL document CHEMBL1127385, “Synthesis and diuretic activity of alkyl- and arylguanidine analogs of N,N'-dicyclohexyl-4-morpholinecarboxamidine in rats and dogs” (J Med Chem, 1994):
Values belong to the molecule of their own block, whether it stands above or below them.

Columns and labels:
Rattus norvegicus [1] = assay: Total electrolytic excretion of potassium in urine of rats after peroral administration of 24.9 uM/Kg of drug; assay type: ADME, organism-based; conditions: in vivo, po
Rattus norvegicus [2] = assay: Total electrolytic excretion of sodium in urine of rats after peroral administration of 24.9 uM/Kg of drug; assay type: ADME, organism-based; conditions: in vivo, po
Rattus norvegicus [3] = assay: Total electrolytic excretion of sodium in urine of rats after peroral administration of 249 uM/Kg of drug; assay type: ADME, organism-based; conditions: in vivo, po
Canis familiaris [4] = assay: Total electrolytic excretion of sodium in urine of dogs after intravenous administration of 2.49 uM/Kg of drug; assay type: ADME, organism-based, Canis lupus familiaris; conditions: dog, in vivo
Rattus norvegicus [5] = assay: Tested for the diuretic activity by measuring the urinary volume after peroral administering 24.9 uM/Kg of drug in rats; assay type: ADME, organism-based, Urine; conditions: in vivo, po
Rattus norvegicus [6] = assay: Ratio of Total electrolytic excretion of sodium and potassium in urine of rats after intravenous administration of 2.49 uM/Kg of drug; assay type: ADME, organism-based; conditions: in vivo
Canis familiaris [7] = assay: Total electrolytic excretion of potassium in urine of dogs after intravenous administration of 2.49 uM/Kg of drug; assay type: ADME, organism-based, Canis lupus familiaris; conditions: dog, in vivo
Rattus norvegicus [8] = assay: Ratio of Total electrolytic excretion of sodium and potassium in urine of rats after peroral administration of 24.9 uM/Kg of drug; assay type: ADME, organism-based; conditions: in vivo, po
Rattus norvegicus [9] = assay: Ratio of Total electrolytic excretion of sodium and potassium in urine of rats after peroral administration of 74.8 uM/Kg of drug; assay type: ADME, organism-based; conditions: in vivo, po
Rattus norvegicus [10] = assay: Tested for the diuretic activity by measuring the urinary volume after peroral administering 249 uM/Kg of drug in rats; assay type: ADME, organism-based, Urine; conditions: in vivo, po
Rattus norvegicus [11] = assay: Total electrolytic excretion of potassium in urine of rats after peroral administration of 74.8 uM/Kg of drug; assay type: ADME, organism-based; conditions: in vivo, po
Rattus norvegicus [12] = assay: Total electrolytic excretion of chlorine in urine of rats after peroral administration of 249 uM/Kg of drug; assay type: ADME, organism-based; conditions: in vivo, po
Rattus norvegicus [13] = assay: Tested for the diuretic activity by measuring the urinary volume after peroral administering 74.8 uM/Kg of drug in rats; assay type: ADME, organism-based, Urine; conditions: in vivo, po
Rattus norvegicus [14] = assay: Ratio of Total electrolytic excretion of sodium and potassium in urine of rats after peroral administration of 249 uM/Kg of drug; assay type: ADME, organism-based; conditions: in vivo, po
Canis familiaris [15] = assay: Total electrolytic excretion of chlorine in urine of dogs after intravenous administration of 2.49 uM/Kg of drug; assay type: ADME, organism-based, Canis lupus familiaris; conditions: dog, in vivo
Rattus norvegicus [16] = assay: Total electrolytic excretion of chlorine in urine of rats after peroral administration of 74.8 uM/Kg of drug; assay type: ADME, organism-based; conditions: in vivo, po
Canis familiaris [17] = assay: Tested for the diuretic activity by measuring the urinary volume after intravenous administering 2.49 uM/Kg of drug in dogs; assay type: ADME, organism-based, Canis lupus familiaris, Urine; conditions: dog, in vivo
Rattus norvegicus [18] = assay: Total electrolytic excretion of sodium in urine of rats after peroral administration of 74.8 uM/Kg of drug; assay type: ADME, organism-based; conditions: in vivo, po
Rattus norvegicus [19] = assay: Total electrolytic excretion of potassium in urine of rats after peroral administration of 249 uM/Kg of drug; assay type: ADME, organism-based; conditions: in vivo, po
Rattus norvegicus [20] = assay: Total electrolytic excretion of chlorine in urine of rats after peroral administration of 24.9 uM/Kg of drug; assay type: ADME, organism-based; conditions: in vivo, po
Rattus norvegicus [21] = assay: Total electrolytic excretion of sodium in urine of rats after peroral administration of 58.4 uM/Kg of drug; assay type: ADME, organism-based; conditions: in vivo, po
Rattus norvegicus [22] = assay: Total electrolytic excretion of sodium in urine of rats after peroral administration of 195 uM/Kg of drug; assay type: ADME, organism-based; conditions: in vivo, po
Rattus norvegicus [23] = assay: Tested for the diuretic activity by measuring the urinary volume after peroral administering 19.5 uM/Kg of drug in rats; assay type: ADME, organism-based, Urine; conditions: in vivo, po
Rattus norvegicus [24] = assay: Total electrolytic excretion of chlorine in urine of rats after peroral administration of 195 uM/Kg of drug; assay type: ADME, organism-based; conditions: in vivo, po
Rattus norvegicus [25] = assay: Total electrolytic excretion of chlorine in urine of rats after peroral administration of 19.5 uM/Kg of drug; assay type: ADME, organism-based; conditions: in vivo, po
Rattus norvegicus [26] = assay: Tested for the diuretic activity by measuring the urinary volume after peroral administering 195 uM/Kg of drug in rats; assay type: ADME, organism-based, Urine; conditions: in vivo, po
Rattus norvegicus [27] = assay: Ratio of Total electrolytic excretion of sodium and potassium in urine of rats after intravenous administration of 19.5 uM/Kg of drug; assay type: ADME, organism-based; conditions: in vivo
Rattus norvegicus [28] = assay: Ratio of Total electrolytic excretion of sodium and potassium in urine of rats after peroral administration of 19.5 uM/Kg of drug; assay type: ADME, organism-based; conditions: in vivo, po
Rattus norvegicus [29] = assay: Total electrolytic excretion of potassium in urine of rats after peroral administration of 58.4 uM/Kg of drug; assay type: ADME, organism-based; conditions: in vivo, po
Rattus norvegicus [30] = assay: Ratio of Total electrolytic excretion of sodium and potassium in urine of rats after intravenous administration of 5.84 uM/Kg of drug; assay type: ADME, organism-based; conditions: in vivo
Rattus norvegicus [31] = assay: Ratio of Total electrolytic excretion of sodium and potassium in urine of rats after peroral administration of 195 uM/Kg of drug; assay type: ADME, organism-based; conditions: in vivo, po
Rattus norvegicus [32] = assay: Tested for the diuretic activity by measuring the urinary volume after peroral administering 58.4 uM/Kg of drug in rats; assay type: ADME, organism-based, Urine; conditions: in vivo, po
Rattus norvegicus [33] = assay: Total electrolytic excretion of chlorine in urine of rats after peroral administration of 58.4 uM/Kg of drug; assay type: ADME, organism-based; conditions: in vivo, po
Rattus norvegicus [34] = assay: Total electrolytic excretion of sodium in urine of rats after peroral administration of 19.5 uM/Kg of drug; assay type: ADME, organism-based; conditions: in vivo, po
Rattus norvegicus [35] = assay: Total electrolytic excretion of potassium in urine of rats after peroral administration of 195 uM/Kg of drug; assay type: ADME, organism-based; conditions: in vivo, po
Rattus norvegicus [36] = assay: Ratio of Total electrolytic excretion of sodium and potassium in urine of rats after peroral administration of 58.4 uM/Kg of drug; assay type: ADME, organism-based; conditions: in vivo, po
Rattus norvegicus [37] = assay: Total electrolytic excretion of potassium in urine of rats after peroral administration of 19.5 uM/Kg of drug; assay type: ADME, organism-based; conditions: in vivo, po

Excretion K+ (Rattus norvegicus [1]): 0.29 m equiv
Excretion Na+ (Rattus norvegicus [2]): 0.87 m equiv
Excretion Na+ (Rattus norvegicus [3]): 1.67 m equiv
Excretion Na+ (Canis familiaris [4]): 8.3 m equiv
V (Rattus norvegicus [5]): 5.3 mL
Ratio (Rattus norvegicus [6]): 4.8
Excretion K+ (Canis familiaris [7]): 2 m equiv
Ratio (Rattus norvegicus [8]): 3
Ratio (Rattus norvegicus [9]): 4.1
V (Rattus norvegicus [10]): 10.8 mL
Excretion K+ (Rattus norvegicus [11]): 0.33 m equiv
Excretion Cl- (Rattus norvegicus [12]): 1.7 m equiv
V (Rattus norvegicus [13]): 8.3 mL
Ratio (Rattus norvegicus [14]): 4
Excretion Cl- (Canis familiaris [15]): 5.4 m equiv
Excretion Cl- (Rattus norvegicus [16]): 1.38 m equiv
V (Canis familiaris [17]): 51 mL
Excretion Na+ (Rattus norvegicus [18]): 1.35 m equiv
Excretion K+ (Rattus norvegicus [19]): 0.42 m equiv
Excretion Cl- (Rattus norvegicus [20]): 0.98 m equiv
SMILES: CCOC(=O)N1CCN(/C(=N\C2CCCCC2)NC2CCCCC2)CC1

Excretion Na+ (Rattus norvegicus [21]): 2.04 m equiv
Excretion Na+ (Rattus norvegicus [22]): 1.9 m equiv
V (Rattus norvegicus [23]): 10.1 mL
Excretion Cl- (Rattus norvegicus [24]): 1.66 m equiv
Excretion Cl- (Rattus norvegicus [25]): 1.52 m equiv
V (Rattus norvegicus [26]): 10.9 mL
Ratio (Rattus norvegicus [27]): 6.8
Ratio (Rattus norvegicus [28]): 6.6 [Na+]/[K+]
Excretion K+ (Rattus norvegicus [29]): 0.27 m equiv
Ratio (Rattus norvegicus [30]): 8 [Na+]/[K+]
Ratio (Rattus norvegicus [31]): 7.6 [Na+]/[K+]
V (Rattus norvegicus [32]): 12.8 mL
Excretion Cl- (Rattus norvegicus [33]): 1.97 m equiv
Excretion Na+ (Rattus norvegicus [34]): 1.51 m equiv
Excretion K+ (Rattus norvegicus [35]): 0.25 m equiv
Ratio (Rattus norvegicus [36]): 7.5 [Na+]/[K+]
Excretion K+ (Rattus norvegicus [37]): 0.23 m equiv
SMILES: C1CN(/C(=N\C23CC4CC(CC(C4)C2)C3)NC23CC4CC(CC(C4)C2)C3)CCO1
